US12551492B2, “Enthesis healing” (UNIVERSITY OF UTAH RESEARCH FOUNDATION, priority 2020, dated 2026)
Like-named read-outs stand apart in the source and are kept apart here.

B1: PDGF-BB: platelet derived growth factor-BB (protein, UniProt P01127 82-190, looked up)
Platelet-derived growth …: SLGSLTIAEPAMIAECKTRTEVFEISRRLIDRTNANFLVWPPCVEVQRCSGCCNNRNVQCRPTQVQLRPVQVRKIEIVRKKPIFKKATVTLEDHLACKCETVAAARPVT

Legend:
[1] = cited from earlier work
rotator cuff repair = settings: mouse and rat models; cited from earlier work
[2] = Multi-payor national database study: infection after rotator cuff repair; assay type: in vivo; settings: patients receiving testosterone replacement vs non-testosterone replacement patients, adjusted
Description: A study within a multi-payor large national database with over 160 million individuals was conducted including 292,666 patients who underwent RCR and an equal number of controls matched for age, sex, year of surgery, and years within the database.
The higher testosterone levels found in males as compared to females increase the presence of Cutibacterium acnes on the skin.

rotator cuff enthesis = experiment: Mouse rotator cuff repair, histological analyses four weeks post-operatively; assay type: in vivo, male wild type mice
Excerpt: (§1) Twenty-nine male wild type mice were randomly divided into three study groups. Group 1 (Control) consisted of unoperated mice which provided intact “control” shoulders with normal rotator cuff tendons. Group 2 (Repair Only) was a surgical repair group injected with the drug carrier used in Group 3. Group 3 (Repair+DES) was a surgical repair group injected with diethylstilbestrol (DES). Twenty-three mice were sacrificed four weeks post-operatively and used for histological analyses including scanning electron & light microscopy. The six remaining mice (n=3 Repair Only and n=3 Repair+DES) were sacrificed at 2 weeks for RNA expression analysis of various chondrogenic, angiogenic, osteogenic, tendon maturation/modulation, and hormonal genes.

[3] = test system: chondrogenic, angiogenic, osteogenic, tendon maturation/modulation, and hormonal genes; experiment: Mouse rotator cuff repair, RNA expression analysis at 2 weeks; assay type: in vivo, male wild type mice; settings: Repair+DES vs Repair Only, p<0.02
Excerpt: as §1

[4] = Table 2, available forms of testosterone
[5] = Table 1, available forms of estrogen

| Molecule | Half-life [1, 4] [days] | Half-life [1, 5] | other results |
| --- | --- | --- | --- |
| CCC(=O)O[C@H]1CC[C@H]2[C@@H]3CCC4=CC(=O)CC[C@]4(C)[C@H]3CC[C@]12C [Testosterone propionate] | 2 |  |  |
| CCCCCCC(=O)O[C@H]1CC[C@H]2[C@@H]3CCc4cc(O)ccc4[C@H]3CC[C@]12C [Estradiol enanthate] |  | 5 to 8 days |  |
| CC/C(=C(\c1ccccc1)c1ccc(OCCN(C)C)cc1)c1ccccc1 [Tamoxifen (SERM), Tamoxifen] |  | 5 to 7 days |  |
| CCCCCCCCCCC(=O)O[C@H]1CC[C@H]2[C@@H]3CCC4=CC(=O)CC[C@]4(C)[C@H]3CC[C@]12C [Testosterone undecanoate (PO), Testosterone undecanoate] | 0.0694 |  | Half-life ([1]; Table 2, available forms of testosterone, listed as Testosterone undecanoate (IM)): 34 days |
| TGF-beta1: transforming growth factor beta1 |  |  | histologic or biomechanical characteristics after rotator cuff repair (rotator cuff repair): positively influence histologic or biomechanical characteristics |
| C[C@]12CC[C@H]3[C@@H](CCC4=CC(=O)CC[C@@]43C)[C@@H]1CC[C@@H]2OC(=O)CCC1CCCC1 [Testosterone cypionate] | 8 |  |  |
| C[C@](O)(COc1ccc(C#N)cc1)C(=O)Nc1ccc(C#N)c(C(F)(F)F)c1 [Enobosarm] | 0.0694 |  |  |
| C[C@]12CC[C@H]3[C@@H](CCC4=CC(=O)CC[C@@]43C)[C@@H]1CC[C@@H]2O [testosterone] |  |  | increase in risk of having an infection after an RCR [2]: 75% |
| C[C@]12CC[C@@H]3c4ccc(O)cc4CC[C@H]3[C@@H]1CC[C@@H]2OC(=O)CCC1CCCC1 [Estradiol cypionate] |  | 8 to 10 days |  |
| CC/C(=C(/CC)c1ccc(O)cc1)c1ccc(O)cc1 [DES, diethylstilbestrol] |  |  | areas of calcified and uncalcified fibrocartilage (rotator cuff enthesis; Repair Only vs Control and Repair+DES, p<0.03): significantly greater in the Repair Only group; bone formation within the humeral head (rotator cuff enthesis; Repair+DES vs Repair Only and Control (intact tendon), p<0.001): increase of bone formation; osteogenic, angiogenic, and tendon modulation gene expression [3]: further increased |
| FGF-2: fibroblast growth factor 2 |  |  | histologic or biomechanical characteristics after rotator cuff repair (rotator cuff repair): positively influence histologic or biomechanical characteristics |
| CCC(=O)Oc1ccc2c(c1)CC[C@@H]1[C@@H]2CC[C@]2(C)[C@@H](OC(=O)CC)CC[C@@H]12 [Estradiol dipropionate] |  | >5 days |  |
| N#Cc1ccc(N2CCC[C@@H]2[C@@H](O)C(F)(F)F)cc1C(F)(F)F [Ligandrol] | 1 to 1.5 |  |  |
| CCN(CC)CCOc1ccc(C(=C(Cl)c2ccccc2)c2ccccc2)cc1 [Clomiphene (SERM), Clomiphene] |  | 5 days |  |
| CCCCCCC(=O)O[C@H]1CC[C@H]2[C@@H]3CCC4=CC(=O)CC[C@]4(C)[C@H]3CC[C@]12C [Testosterone enanthate] | 4.5 |  |  |
| CCCCCCCCCCC(=O)O[C@H]1CC[C@H]2[C@@H]3CCc4cc(O)ccc4[C@H]3CC[C@]12C [Estradiol undecylate] |  | 1-2 mon |  |
| CCCCC(=O)O[C@H]1CC[C@H]2[C@@H]3CCc4cc(O)ccc4[C@H]3CC[C@]12C [Estradiol valerate] |  | 4 to 5 days |  |
| C[C@]12CC[C@@H]3c4ccc(OC(=O)c5ccccc5)cc4CC[C@H]3[C@@H]1CC[C@@H]2O [Estradiol benzoate] |  | 2 to 5 days |  |
| B1 |  |  | histologic or biomechanical characteristics after rotator cuff repair (rotator cuff repair): positively influence histologic or biomechanical characteristics |
